According to PMC8706998, “Lipid Nanocarriers-Loaded Nanocomposite as a Suitable Platform to Release Antibacterial and Antioxidant Agents for Immediate Dental Implant Placement Restorative Treatment” (Pharmaceutics, 2021):
Where “and” joins values, the source holds several entries; their conditions need not be identical. Equal values may be shown once.

How the values were obtained:
[1] = QRC stability assay in aqueous environments (UV-Vis absorbance at 360 nm); format: physicochemical; details: for decrease of absorbance ratio at 360 nm: QRC 0.01 mg/mL, room temperature, after 6 h
Method: QRC degradation rate was investigated in: (i) PBS pH 7.4 containing 10% v/v of DMSO (solvent A) and (ii) citrate buffer pH 5.5 solution amended with either 10% v/v of DMSO (solvent B) or 10% v/v of DMSO and 0.002% w/v of ACys (solvent C). The prepared QRC aqueous solutions (0.01 mg/mL) were kept at room temperature for 6 h in quartz cuvette located in the UV–Vis spectrophotometer (Shimadzu 1700 instrument, Kyoto, Japan). At scheduled time intervals (10 min), QRC spectra were recorded (from 200 to 700 nm) to highlight any changes in terms of sharp and absorption peaks. Results were reported as absorbance variation at lambda max (360 nm) over time according to the following equation: Abs variation %=Abstn/Abst0×100 where Abst0 and Abstn are the QRC absorbance recorded initially and at each time point, respectively. The stability assays were performed in triplicate. Results are reported as means ± SE.

[2] = QRC and CPX solubility studies in aqueous media; format: physicochemical; details: for solubility at 120 min: 37 °C, pH 5.5, aqueous with cosolvent or surfactant or cyclodextrin, thermodynamic from solid, 37 ± 0.5 °C
Method: QRC, in excess, was added to each medium (1 mL) until precipitation occurred. […] The solubility tests were performed in triplicate. Results are reported as means ± SE.

[3] = Screening of the liquid lipids: visual evaluation of QRC dissolution (5% w/w); format: physicochemical; details: QRC 5% w/w (5:95)
Method: Labrasol®, Capryol PGMC®, Plurol®, Maisine®, Labrafil® M 1944 CS, and PEG-18 G/C were selected as liquid lipids to evaluate their ability to completely dissolve the desired amount of QRC (5% w/w). Briefly, 50 mg of QRC was added to 950 mg of each lipid. Each mixture was then ultrasonicated (Emerson Branson 1200, Branson, Brookfield, USA) for 15 min, allowing QRC powder disaggregation. Then, mixtures were maintained under magnetic stirring (200 rpm) and kept in a silicone thermostatic bath heated up to 60 °C (Heidolph MR3001K, Schwabach, Germany) for 30 min. After cooling at room temperature, samples were evaluated in terms of appearance and clearness.

[4] = QRC release study, modified transwell support with 1-octanol acceptor; format: physicochemical; details: QRC release from BioQ-CPX, data up to 30 h
Method: QRC release studies were carried out using a modified transwell permeable support (0.45 µm) filled with 5 mg of the BioQ-CPX powder and soaked with 0.2 mL of citrate buffer pH 5.5. The entire system was dipped inside a beaker filled with 8 mL of 1-octanol as a suitable acceptor fluid. […] The experiments were carried out at 37 ± 0.5 °C under constant stirring and protected by light exposure while, immediately after sampling, opportune volumes of fresh acceptor fluid were added to maintain the sink conditions. Data are reported as means ± SE (n = 6). Drug release profiles were elaborated using OriginPro 8.5 software and fitted with semi-empirical model equations. Fittings were validated by using R^2 value where a p-value of less than 0.05 was considered statistically significant.

[5] = DPPH antioxidant assay; format: biochemical; details: 0.08-0.01 mg/mL
Method: To evaluate the antioxidant activity of BioQ-CPX, the 2,2-diphenyl-1-picrylhydrazyl (DPPH) assay was performed. […] A measure of 0.5 mL of nanocomposite solution was transferred in polystyrene cuvette, added to 2.5 mL of DPPH ethanol solution (0.0295 mg/mL), and preserved by light exposure using foil. At determined time intervals (0, 0.25, 1, and 2 h), the DPPH concentration was measured spectrophotometrically at room temperature by observing the spectral range 400-800 nm and selecting λmax = 515 nm for quantification. The DPPH calibration curve was constructed analyzing DPPH ethanol solutions in the concentration range of 0.039-0.0156 mg/mL (λmax = 515 nm, regression equation: […] Results are expressed as means ± SE.

[6] = cited from earlier work

O=c1c(O)c(-c2ccc(O)c(O)c2)oc2cc(O)cc(O)c12 [QRC, quercetin]
decrease of absorbance ratio at 360 nm ([1]; PBS pH 7.4 + 10% v/v DMSO): 42%
QRC stability over time ([1]; citrate buffer pH 5.5 + 10% v/v DMSO + 0.002% w/v ACys): improved
decrease of absorbance ratio at 360 nm ([1]; citrate buffer pH 5.5 + 10% v/v DMSO): 25%
solubility at 120 min ([2]; Citrate buffer pH 5.5/ACys plus DMSO 10% v/v): 29 µg/mL
solubility at 120 min ([2]; Citrate buffer pH 5.5/ACys plus β-CD 2% w/v): 83 µg/mL
solubility at 120 min ([2]; Citrate buffer pH 5.5/ACys plus β-CD 3% w/v): 103 µg/mL
solubility enhancement compared to water solubility ([2]; in presence of β-CD 2%): 42 fold
Appearance of QRC-liquid lipid mixture ([3]; Capryol PGMC): Opalescent
Appearance of QRC-liquid lipid mixture ([3]; Labrafil M 1944 CS): Opalescent
Appearance of QRC-liquid lipid mixture ([3]; Labrasol): Clear
Appearance of QRC-liquid lipid mixture ([3]; Maisine): Opalescent
Appearance of QRC-liquid lipid mixture ([3]; PEG-18 G/C): Slightly Opalescent
Appearance of QRC-liquid lipid mixture ([3]; Plurol): Opalescent
Korsmeyer-Peppas n [4]: 0.7915
Korsmeyer-Peppas with Tlag n [4]: 0.6509 ± 0.0127 and 0.6509
First-Order k ([4]; time in hours): 0.05179
Korsmeyer-Peppas k ([4]; time in hours): 0.0578
Korsmeyer-Peppas with Tlag k ([4]; time in hours): 0.0947
Korsmeyer-Peppas with Tlag: Tlag ([4]; time in hours): 1.440
Zero-Order k ([4]; time in hours): 0.02997
%RCD compared with BioQ-CPX samples ([5]; corresponding to QRC content of the nanocomposite samples, after 1 and 2 h): same values of %RCD and trends
scavenging activity compared with BioQ-CPX samples ([5]; within 15 min incubation): lower
logP [6]: 1.50
